Target: T1, EPHB3 (Homo sapiens, UniProt P54753)
T1 construct: purchased Thermo Fisher Scientific (Life Technologies) SelectScreen
Assay: SelectScreen Z'LYTE
Format: biochemical
In short: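 Percent values come from Thermo SelectScreen profiling of NU5455, combining activity and binding assays. CSF1R was run in Z'LYTE format at Km app ATP, and CAMK1 in Adapta format with ATP listed at 10.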

T1 sequence (P54753 34-998): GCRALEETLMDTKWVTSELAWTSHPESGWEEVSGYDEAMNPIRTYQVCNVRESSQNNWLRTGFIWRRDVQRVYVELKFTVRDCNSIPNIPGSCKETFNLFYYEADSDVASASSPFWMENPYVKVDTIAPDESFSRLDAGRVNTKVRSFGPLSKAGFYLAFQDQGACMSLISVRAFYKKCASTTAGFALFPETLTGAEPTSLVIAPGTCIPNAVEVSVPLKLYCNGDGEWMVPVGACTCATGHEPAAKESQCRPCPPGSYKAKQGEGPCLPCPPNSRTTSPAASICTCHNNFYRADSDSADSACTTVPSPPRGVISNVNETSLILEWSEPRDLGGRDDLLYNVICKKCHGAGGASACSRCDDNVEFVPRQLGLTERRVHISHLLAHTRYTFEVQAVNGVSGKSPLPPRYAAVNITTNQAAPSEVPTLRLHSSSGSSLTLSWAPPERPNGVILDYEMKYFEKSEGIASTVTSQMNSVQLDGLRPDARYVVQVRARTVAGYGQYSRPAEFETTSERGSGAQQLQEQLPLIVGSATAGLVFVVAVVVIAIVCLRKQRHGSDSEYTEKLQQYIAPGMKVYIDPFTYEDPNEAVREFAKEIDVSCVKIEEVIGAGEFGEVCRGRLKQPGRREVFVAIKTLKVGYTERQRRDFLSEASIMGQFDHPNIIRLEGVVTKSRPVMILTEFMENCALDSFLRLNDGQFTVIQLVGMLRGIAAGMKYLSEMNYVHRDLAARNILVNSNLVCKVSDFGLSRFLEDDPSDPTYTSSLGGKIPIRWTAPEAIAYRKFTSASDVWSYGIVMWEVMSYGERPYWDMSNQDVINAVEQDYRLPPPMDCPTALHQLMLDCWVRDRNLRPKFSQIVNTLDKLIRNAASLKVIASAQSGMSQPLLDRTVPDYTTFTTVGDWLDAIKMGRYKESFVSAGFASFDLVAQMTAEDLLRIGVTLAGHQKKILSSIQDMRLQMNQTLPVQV

Compound `CN(C(=O)CN1CCOCC1)c1ccc2sc3c(-c4cccc5c(=O)cc(N6CC7CCC(C6)O7)oc45)cccc3c2c1` [NU5455] has an inhibition at 1 µM of 1.1%.

Reference: paper PMC6934184, “Selective DNA-PKcs inhibition extends the therapeutic index of localized radiotherapy and chemotherapy” (The Journal of Clinical Investigation, 2019)
